Measurements reported in patent US11530200B2, “Compounds” (Inflazome Limited, priority 2018, dated 2022).
Counter-ions that a name gives are not always drawn.

Target: NLRP3 (Homo sapiens (Human), UniProt Q96P20)
Assay: THP-1 cells pyroptosis assay (LPS priming, nigericin, resazurin readout)
Type: cell-based
Conditions: 1.0 μg/ml LPS, nigericin 5 μM, NLRP3 inhibitory activity
Description: THP-1 cells (ATCC #TIB-202) were grown in RPMI containing L-glutamine (Gibco #11835) supplemented with 1 mM sodium pyruvate (Sigma #S8636) and penicillin (100 units/ml)/streptomycin (0.1 mg/ml) (Sigma #P4333) in 10% Fetal Bovine Serum (FBS) (Sigma #F0804). The cells were routinely passaged and grown to confluency (10^6 cells/ml). On the day of the experiment, THP-1 cells were harvested and resuspended into RPMI medium (without FBS). The cells were then counted and viability (>90%) checked by Trypan blue (Sigma #T8154). Appropriate dilutions were made to give a concentration of 625,000 cells/ml. To this diluted cell solution was added LPS (Sigma #L4524) to give a 1 μg/ml Final Assay Concentration (FAC). 40 μl of the final preparation was aliquoted into each well of a 96-well plate. The plate thus prepared was used for compound screening. The following method step-by-step assay was followed for compound screening. • 1. Seed THP-1 cells (25,000 cells/well) containing 1.0 μg/ml LPS in 40 μl of RPMI medium (without FBS) in 96-well, black walled, clear bottom cell culture plates coated with poly-D-lysine (VWR #734-0317) • 2. Add […] compound (8 points half-log dilution, with […] top dose) or vehicle (DMSO 0.1% FAC) to the appropriate wells • 3. Incubate for 3 hrs at 37° C., 5% CO2 • 4. Add 5 μl nigericin (Sigma #N7143) (FAC 5 μM) to all wells • 5. Incubate for 1 hr at 37° C., 5% CO2 • 6. At the end of the incubation period, spin plates at 300×g for 3 mins and remove supernatant • 7. Then add 50 μl of resazurin (Sigma #R7017) (FAC 100 μM resazurin in RPMI medium without FBS) and incubate plates for a further 1-2 hrs at 37° C. and 5% CO2 • 8. Plates were read in an Envision reader at Ex 560 nm and Em 590 nm • 9. IC50 data is fitted to a non-linear regression equation (log inhibitor vs response-variable slope 4-parameters) The results of the pyroptosis assay are summarised in Table 1 below as THP IC50.

Chain of NLRP3 (Q96P20 whole entry): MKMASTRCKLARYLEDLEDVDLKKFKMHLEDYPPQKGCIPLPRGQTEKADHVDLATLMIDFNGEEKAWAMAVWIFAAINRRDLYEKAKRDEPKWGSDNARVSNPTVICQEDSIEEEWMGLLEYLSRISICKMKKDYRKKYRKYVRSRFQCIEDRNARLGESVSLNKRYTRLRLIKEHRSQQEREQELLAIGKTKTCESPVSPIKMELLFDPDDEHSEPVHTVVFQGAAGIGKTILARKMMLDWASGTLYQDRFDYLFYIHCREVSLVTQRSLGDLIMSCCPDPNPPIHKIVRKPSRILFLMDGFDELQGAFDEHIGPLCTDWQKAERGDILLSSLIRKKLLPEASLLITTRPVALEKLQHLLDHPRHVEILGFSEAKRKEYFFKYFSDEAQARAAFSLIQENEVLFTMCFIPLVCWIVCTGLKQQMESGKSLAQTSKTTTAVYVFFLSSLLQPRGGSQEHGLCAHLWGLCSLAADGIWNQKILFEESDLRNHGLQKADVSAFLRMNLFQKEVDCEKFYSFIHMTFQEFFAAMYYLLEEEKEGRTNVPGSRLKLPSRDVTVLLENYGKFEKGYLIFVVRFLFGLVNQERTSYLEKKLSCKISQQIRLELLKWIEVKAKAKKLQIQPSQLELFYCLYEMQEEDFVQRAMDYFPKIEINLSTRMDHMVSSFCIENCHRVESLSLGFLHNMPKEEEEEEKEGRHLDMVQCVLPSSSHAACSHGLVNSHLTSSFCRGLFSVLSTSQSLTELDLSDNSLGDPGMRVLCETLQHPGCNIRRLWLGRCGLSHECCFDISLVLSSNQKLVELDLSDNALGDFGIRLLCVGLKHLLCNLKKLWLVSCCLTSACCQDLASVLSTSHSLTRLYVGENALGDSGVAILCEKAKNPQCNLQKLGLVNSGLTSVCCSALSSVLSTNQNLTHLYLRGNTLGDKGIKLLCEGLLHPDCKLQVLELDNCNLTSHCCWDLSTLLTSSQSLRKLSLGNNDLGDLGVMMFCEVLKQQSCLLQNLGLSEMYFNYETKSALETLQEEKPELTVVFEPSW

IC50 [µM] | SMILES
1 to 5 | N#Cc1cc(-c2ccc3c(c2CC(=O)NS(=O)(=O)c2ccn(C4CC4)n2)CCC3)ccn1 [Example 1, 2-(5-(2-Cyanopyridin-4-yl)-2,3-dihydro-1H-inden-4-yl)-N-((1-cyclopropyl-1H-pyrazol-3-yl)sulfonyl)acetamide]
1 to 5 | COc1cc(-c2cc(F)cc(C(C)C)c2CC(=O)NS(=O)(=O)c2cn(C3CC3)cn2)ccn1 [Example 3, N-((1-Cyclopropyl-1H-imidazol-4-yl)sulfonyl)-2-(4-fluoro-2-isopropyl-6-(2-methoxypyridin-4-yl)phenyl)acetamide]
5 to 10 | COc1cc(-c2ccc3c(c2CC(=O)NS(=O)(=O)c2cnn(C4CC4)n2)CCC3)ccn1 [Example 5, N-((2-Cyclopropyl-2H-1,2,3-triazol-4-yl)sulfonyl)-2-(5-(2-methoxypyridin-4-yl)-2,3-dihydro-1H-inden-4-yl)acetamide]
5 to 10 | CC(C)c1cc(F)cc(-c2ccnc(C#N)c2)c1CC(=O)NS(=O)(=O)c1cnn(C2CC2)n1 [Example 7, 2-(2-(2-Cyanopyridin-4-yl)-4-fluoro-6-isopropylphenyl)-N-((2-cyclopropyl-2H-1,2,3-triazol-4-yl)sulfonyl)acetamide]
1 to 5 | N#Cc1cc(-c2ccc3c(c2CC(=O)NS(=O)(=O)c2cnn(C4CC4)n2)CCC3)ccn1 [Example 8, 2-(5-(2-Cyanopyridin-4-yl)-2,3-dihydro-1H-inden-4-yl)-N-((2-cyclopropyl-2H-1,2,3-triazol-4-yl)sulfonyl)acetamide]
1 to 5 | COC1(c2cc(S(=O)(=O)NC(=O)Cc3c4c(cc5c3CCC5)CCC4)nn2C(C)C)COC1 [Example 12, 2-(1,2,3,5,6,7-Hexahydro-s-indacen-4-yl)-N-((1-isopropyl-5-(3-methoxyoxetan-3-yl)-1H-pyrazol-3-yl)sulfonyl)acetamide]
5 to 10 | COC1(c2cc(S(=O)(=O)NC(=O)Cc3c(-c4ccnc(C#N)c4)ccc4c3CCC4)nn2C(C)C)COC1 [Example 13, 2-(5-(2-Cyanopyridin-4-yl)-2,3-dihydro-1H-inden-4-yl)-N-((1-isopropyl-5-(3-methoxyoxetan-3-yl)-1H-pyrazol-3-yl)sulfonyl)acetamide, potassium salt]
1 to 5 | COC1(c2cc(S(=O)(=O)NC(=O)Cc3c4c(cc5c3CCC5)CCC4)nn2C2CC2)COC1 [Example 14, N-((1-Cyclopropyl-5-(3-methoxyoxetan-3-yl)-1H-pyrazol-3-yl)sulfonyl)-2-(1,2,3,5,6,7-hexahydro-s-indacen-4-yl)acetamide]
1 to 5 | CC(c1cc(S(=O)(=O)NC(=O)Cc2c3c(cc4c2CCC4)CCC3)nn1C1CC1)N(C)C (stereo not drawn) [Example 15, N-((1-Cyclopropyl-5-(1-(dimethylamino)ethyl)-1H-pyrazol-3-yl)sulfonyl)-2-(1,2,3,5,6,7-hexahydro-s-indacen-4-yl)acetamide]
1 to 5 | CC(C)c1cc(F)cc(C(C)C)c1CC(=O)NS(=O)(=O)c1cc(CN(C)C)n(C2CC2)n1 [Example 16, N-((1-Cyclopropyl-5-((dimethylamino)methyl)-1H-pyrazol-3-yl)sulfonyl)-2-(4-fluoro-2,6-diisopropylphenyl)acetamide]
1 to 5 | COc1cc(-c2ccc3c(c2CC(=O)NS(=O)(=O)c2ccn(C4CC4)n2)CCC3)ccn1 [Example 17, N-((1-Cyclopropyl-1H-pyrazol-3-yl)sulfonyl)-2-(5-(2-methoxypyridin-4-yl)-2,3-dihydro-1H-inden-4-yl)acetamide]
1 to 5 | COc1cc(-c2cc(F)cc(C(C)C)c2CC(=O)NS(=O)(=O)c2cnn(C3CC3)n2)ccn1 [Example 20, N-((2-Cyclopropyl-2H-1,2,3-triazol-4-yl)sulfonyl)-2-(4-fluoro-2-isopropyl-6-(2-methoxypyridin-4-yl)phenyl)acetamide]
1 to 5 | CC(C)c1cc(F)cc(-c2cccnc2)c1CC(=O)NS(=O)(=O)c1ncn(C2CC2)n1 [Example 22, N-((1-Cyclopropyl-1H-1,2,4-triazol-3-yl)sulfonyl)-2-(4-fluoro-2-isopropyl-6-(pyridin-3-yl)phenyl)acetamide]
1 to 5 | CC(C)c1cc(F)cc(-c2cccnc2)c1CC(=O)NS(=O)(=O)c1cnn(C2CC2)n1 [Example 27, N-((2-Cyclopropyl-2H-1,2,3-triazol-4-yl)sulfonyl)-2-(4-fluoro-2-isopropyl-6-(pyridin-3-yl)phenyl)acetamide]
1 to 5 | COC1(c2cc(S(=O)(=O)NC(=O)Cc3c(C(C)C)cc(F)cc3C(C)C)nn2C(C)C)COC1 [Example 29, 2-(4-Fluoro-2,6-diisopropylphenyl)-N-((1-isopropyl-5-(3-methoxyoxetan-3-yl)-1H-pyrazol-3-yl)sulfonyl)acetamide]
5 to 10 | CC(C)c1cc(F)cc(-c2ccnc(C#N)c2)c1CC(=O)NS(=O)(=O)c1cn(C2CC2)cn1 [Example 31, 2-(2-(2-Cyanopyridin-4-yl)-4-fluoro-6-isopropylphenyl)-N-((1-cyclopropyl-1H-imidazol-4-yl)sulfonyl)acetamide]

The remaining lines, values behind:

SMILES | IC50 [µM]
CC(C)c1cc(F)cc(-c2ccncc2)c1CC(=O)NS(=O)(=O)c1ccn(C2CC2)n1 [Example 2, N-((1-Cyclopropyl-1H-pyrazol-3-yl)sulfonyl)-2-(4-fluoro-2-isopropyl-6-(pyridin-4-yl)phenyl)acetamide, potassium salt] | ≤ 1
COc1cc(-c2cc(F)cc(C(C)C)c2CC(=O)NS(=O)(=O)c2ccn(C3CC3)n2)ccn1 [Example 4, N-((1-Cyclopropyl-1H-pyrazol-3-yl)sulfonyl)-2-(4-fluoro-2-isopropyl-6-(2-methoxypyridin-4-yl)phenyl)acetamide] | 1 to 5
CC(C)c1cc(F)cc(-c2cccnc2)c1CC(=O)NS(=O)(=O)c1cn(C2CC2)cn1 [Example 6, N-((1-Cyclopropyl-1H-imidazol-4-yl)sulfonyl)-2-(4-fluoro-2-isopropyl-6-(pyridin-3-yl)phenyl)acetamide] | 5 to 10
CC(C)c1cc(F)cc(-c2ccnc(C#N)c2)c1CC(=O)NS(=O)(=O)c1cnn(C2CC2)c1 [Example 9, 2-(2-(2-Cyanopyridin-4-yl)-4-fluoro-6-isopropylphenyl)-N-((1-cyclopropyl-1H-pyrazol-4-yl)sulfonyl)acetamide] | 5 to 10
COc1cc(-c2cc(F)cc(C(C)C)c2C(O)C(=O)NS(=O)(=O)c2cnn(C3CC3)c2)ccn1 (stereo not drawn) [Example 10, N-((1-Cyclopropyl-1H-pyrazol-4-yl)sulfonyl)-2-(4-fluoro-2-isopropyl-6-(2-methoxypyridin-4-yl)phenyl)-2-hydroxyacetamide] | 5 to 10
O=C(Cc1c2c(cc3c1CCC3)CCC2)NS(=O)(=O)c1ccn(C2CC2)n1 [Example 19, N-((1-Cyclopropyl-1H-pyrazol-3-yl)sulfonyl)-2-(1,2,3,5,6,7-hexahydro-s-indacen-4-yl)acetamide] | 5 to 10
COc1cc(-c2ccc3c(c2CC(=O)NS(=O)(=O)c2cnn(C4CC4)c2)CCC3)ccn1 [Example 23, N-((1-Cyclopropyl-H-pyrazol-4-yl)sulfonyl)-2-(5-(2-methoxypyridin-4-yl)-2,3-dihydro-1H-inden-4-yl)acetamide] | 1 to 5
CC(C)c1cc(F)cc(C(C)C)c1CC(=O)NS(=O)(=O)c1ncn(C2CC2)n1 [Example 25, N-((1-Cyclopropyl-H-1,2,4-triazol-3-yl)sulfonyl)-2-(4-fluoro-2,6-diisopropylphenyl)acetamide] | 5 to 10
CC(C)c1cc(F)cc(C(C)C)c1CC(=O)NS(=O)(=O)c1cnn(C2CC2)n1 [Example 26, N-((2-Cyclopropyl-2H-1,2,3-triazol-4-yl)sulfonyl)-2-(4-fluoro-2,6-diisopropylphenyl)acetamide] | 1 to 5
CC(C)c1cc(F)cc(C(C)C)c1CC(=O)NS(=O)(=O)c1cn(C2CC2)cn1 [Example 28, N-((1-Cyclopropyl-1H-imidazol-4-yl)sulfonyl)-2-(4-fluoro-2,6-diisopropylphenyl)acetamide] | 1 to 5
N#Cc1cc(-c2ccc3c(c2CC(=O)NS(=O)(=O)c2cnn(C4CC4)c2)CCC3)ccn1 [Example 30, 2-(5-(2-Cyanopyridin-4-yl)-2,3-dihydro-H-inden-4-yl)-N-((1-cyclopropyl-1H-pyrazol-4-yl)sulfonyl)acetamide] | 5 to 10
